Experimental data reported in patent US20150313927A1, “AN EDIBLE COMPOSITION COMPRISING RESVERATROL AND FLAVONOID MONOGLUCOSIDE” (Conopco, Inc., d/b/a UNILEVER, priority 2012, published 2015).
Values joined by “and” are separate entries in the source; they are usually repeats but may differ in a detail not shown here. Identical values can stand only once.

What was measured:
GLUT2 = molecular target: T1, GLUT2 (Homo sapiens, UniProt P11168); experiment: Glucose transport inhibitor cell screening assay, 25 mM D-glucose for 30 minutes; conditions: for % Glucose Transport inhibition 25 mM / GLUT2 inhibition (in words): 25 mM D-glucose; for % Glucose Transport inhibition 25 mM: 30 minutes, actives at 150 uM, differentiated Caco-2 monolayer; for inhibition at 25000 µM: Caco-2, read-out: % Glucose Transport inhibition 25 mM; for GLUT2 inhibition (in words): Caco-2 cell model
T1 sequence (P11168 1-524): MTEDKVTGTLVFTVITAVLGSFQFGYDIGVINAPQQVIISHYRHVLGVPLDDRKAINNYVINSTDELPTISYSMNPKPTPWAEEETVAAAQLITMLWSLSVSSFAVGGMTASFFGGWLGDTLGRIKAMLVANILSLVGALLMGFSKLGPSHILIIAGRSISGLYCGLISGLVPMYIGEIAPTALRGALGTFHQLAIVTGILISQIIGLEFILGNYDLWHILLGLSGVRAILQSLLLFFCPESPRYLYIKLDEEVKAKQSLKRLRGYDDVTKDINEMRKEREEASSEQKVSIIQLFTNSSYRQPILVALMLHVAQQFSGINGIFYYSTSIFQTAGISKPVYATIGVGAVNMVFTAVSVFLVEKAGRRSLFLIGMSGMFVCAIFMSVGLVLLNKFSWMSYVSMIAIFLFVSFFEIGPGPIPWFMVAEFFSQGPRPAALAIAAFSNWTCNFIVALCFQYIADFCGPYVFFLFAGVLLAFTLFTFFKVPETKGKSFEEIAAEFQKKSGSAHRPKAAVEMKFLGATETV

SGLT1 = experiment: Glucose transport inhibitor cell screening assay, 5 mM D-glucose for 15 minutes; conditions: for % Glucose Transport inhibition 5 mM / SGLT1 inhibitory activity (in words): 5 mM D-glucose; for % Glucose Transport inhibition 5 mM: 15 minutes, actives at 300 uM, differentiated Caco-2 monolayer; for SGLT1 inhibitory activity (in words): Caco-2 cell model; for Class (assigned class of transporter inhibited): based on inhibition at 5 mM and 25 mM D-glucose
[1] = molecular target: T2, Human Lactase Phloridzin Hydrolase (hLPH) (Homo sapiens, UniProt P09848); experiment: hLPH enzyme assay (glucoside hydrolysis by LPH extract); type: in vitro ADME; conditions: for μM substrate hydrolysed/hr: glucoside 1.0 mM, 10% LPH extract (Caco2), 1 hour, 37° C., pH 6.0; for Resistance to hydrolysis - % Q4G: resistance to LPH hydrolysis relative to quercetin-4-glucoside (Q4G)
T2 construct: at confluence for 21 days prior to extraction with a Novagen ProteoExtract™ trans-membrane Protein Extraction kit; endogenous in cells; host or cells: Caco-2 cells (ATCC), 21 days at confluence; membrane protein extract desalted over G-25 Sephadex
Description: Extracts were stored at −80° C. in 50 ul aliquots. Prior to use extracts were semi-purified, removing low molecular weight interfering components by passing through a small G-25 Sephadex 50-100 μl spin-column (Roche or ThermoFisher Scientific). 10 μl of semi-purified LPH extract was added to 90 μl of glucoside (1.0 mM final concentration) in 0.1 M maleate (Sigma) buffer, pH 6.0 and incubated for 60 minutes at 37° C. The reaction was terminated by addition of 200 μl 2M Tris (Sigma), pH 8.0. […] This allowed a full recovery of glucose which was measured using the Amplex® Red Glucose/Glucose Oxidase Assay. […] Fluorescence was read on a SpectraMax Gemini EM SN plate reader (Molecular Devices) (excitation. 530 nm and emission at 590 nm).

[2] = system: differentiated Caco-2 monolayers; experiment: Glucose transport cell model, total cumulative glucose transport (synergy); type: cell-based, Human; conditions: active only in 25 mM D-glucose for remaining 45 minutes (NC Pz 300 μM, NC R 75 μM)

T2 sequence (P09848 869-1927): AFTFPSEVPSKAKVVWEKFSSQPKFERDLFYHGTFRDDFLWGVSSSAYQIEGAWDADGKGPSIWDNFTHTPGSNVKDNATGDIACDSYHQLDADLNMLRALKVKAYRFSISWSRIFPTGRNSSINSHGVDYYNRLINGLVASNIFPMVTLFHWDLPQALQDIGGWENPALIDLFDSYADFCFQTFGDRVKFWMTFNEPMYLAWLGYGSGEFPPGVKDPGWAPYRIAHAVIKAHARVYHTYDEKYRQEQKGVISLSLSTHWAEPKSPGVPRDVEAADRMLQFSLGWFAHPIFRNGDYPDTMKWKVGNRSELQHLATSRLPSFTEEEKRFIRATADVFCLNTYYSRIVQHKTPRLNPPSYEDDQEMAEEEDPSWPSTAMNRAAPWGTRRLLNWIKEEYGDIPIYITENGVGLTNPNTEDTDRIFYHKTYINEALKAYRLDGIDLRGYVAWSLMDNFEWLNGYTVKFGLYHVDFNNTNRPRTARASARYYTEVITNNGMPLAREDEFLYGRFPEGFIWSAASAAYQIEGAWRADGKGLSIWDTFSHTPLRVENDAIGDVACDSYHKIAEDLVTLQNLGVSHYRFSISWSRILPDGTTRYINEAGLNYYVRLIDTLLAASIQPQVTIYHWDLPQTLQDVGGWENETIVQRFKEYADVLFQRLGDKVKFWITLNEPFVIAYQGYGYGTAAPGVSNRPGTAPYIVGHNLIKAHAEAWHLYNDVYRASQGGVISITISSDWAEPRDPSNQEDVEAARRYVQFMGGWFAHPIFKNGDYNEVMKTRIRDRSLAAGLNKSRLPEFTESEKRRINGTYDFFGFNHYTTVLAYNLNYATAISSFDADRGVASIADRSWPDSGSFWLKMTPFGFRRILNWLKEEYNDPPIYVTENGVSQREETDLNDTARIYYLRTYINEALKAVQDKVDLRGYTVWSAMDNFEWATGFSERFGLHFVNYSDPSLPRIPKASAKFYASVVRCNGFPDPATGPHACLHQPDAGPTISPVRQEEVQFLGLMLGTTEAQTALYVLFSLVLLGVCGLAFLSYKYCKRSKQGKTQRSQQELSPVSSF

## O=c1cc(-c2ccc(O)cc2)oc2cc(OC3O[C@H](CO)[C@@H](O)[C@H](O)[C@H]3O)cc(O)c12 (stereo partly drawn) [Apigenin-7-glucoside]
GLUT2
  % Glucose Transport inhibition 25 mM: 12.81%

## O=c1cc(-c2ccc(O)cc2)oc2c([C@@H]3O[C@H](CO)[C@@H](O)[C@H](O)[C@H]3O)c(O)cc(O)c12 [Apigenin-8-C-glucoside]
SGLT1
  % Glucose Transport inhibition 5 mM: 33.84%
  SGLT1 inhibitory activity (in words): inhibition of SGLT1
  Class (assigned class of transporter inhibited): SGLT1
[1]
  μM substrate hydrolysed/hr: 0.685 μM substrate hydrolysed/hr
[1]; listed as A8G
  Resistance to hydrolysis - % Q4G: 77.90%
GLUT2
  % Glucose Transport inhibition 25 mM: 5.76%

## Oc1cc(O)c2cc(O)c(-c3ccc(O)c(O)c3)[o+]c2c1 [Cyanidin]
SGLT1
  % Glucose Transport inhibition 5 mM: 7.93%

## O=c1c(-c2ccc(O)cc2)coc2cc(O[C@@H]3O[C@H](CO)[C@@H](O)[C@H](O)[C@H]3O)ccc12 [Daidzein-7-glucoside]
SGLT1
  % Glucose Transport inhibition 5 mM: 35.03%
  SGLT1 inhibitory activity (in words): inhibition of SGLT1
  Class (assigned class of transporter inhibited): SGLT1
GLUT2
  % Glucose Transport inhibition 25 mM: 7.23%

## O=c1c(-c2ccc(O)cc2)coc2c([C@@H]3O[C@H](CO)[C@@H](O)[C@H](O)[C@H]3O)c(O)ccc12 [Daidzein-8-C-glucoside]
[1]; listed as D8G
  Resistance to hydrolysis - % Q4G: 82.19%

## Oc1cc(O)c2cc(O)c(-c3cc(O)c(O)c(O)c3)[o+]c2c1 [Delphinindin]
SGLT1
  Class (assigned class of transporter inhibited): None
GLUT2
  % Glucose Transport inhibition 25 mM: 15.86%

## O=C1C[C@@H](c2ccc(O)c(O)c2)Oc2cc(O[C@@H]3O[C@H](CO)[C@@H](O)[C@H](O)[C@H]3O)cc(O)c21 [Eriodictyol-7-O-glucoside]
GLUT2
  % Glucose Transport inhibition 25 mM: 4.98%

## O=c1c(O[C@@H]2O[C@H](CO)[C@@H](O)[C@H](O)[C@H]2O)c(-c2ccc(O)cc2)oc2cc(O)cc(O)c12 [Kaempferol 3-O-glucoside]
[1]; listed as K3G
  Resistance to hydrolysis - % Q4G: 92.8% and 92.78%

## O=c1c(O)c(-c2ccc(O)cc2)oc2cc(O[C@@H]3O[C@H](CO)[C@@H](O)[C@H](O)[C@H]3O)cc(O)c12 [Kaempferol 7-O-glucoside]
SGLT1
  % Glucose Transport inhibition 5 mM: 43.89%
  SGLT1 inhibitory activity (in words): inhibition of SGLT1
  Class (assigned class of transporter inhibited): SGLT1
[1]
  μM substrate hydrolysed/hr: 0.618 μM substrate hydrolysed/hr
[1]; listed as K7G
  Resistance to hydrolysis - % Q4G: 80.05%
GLUT2
  % Glucose Transport inhibition 25 mM: 14.42%

## O=c1cc(-c2ccc(O)c(O)c2)oc2cc(O[C@@H]3O[C@H](CO)[C@@H](O)[C@H](O)[C@H]3O)cc(O)c12 [Luteolin-7-glucoside]
SGLT1
  % Glucose Transport inhibition 5 mM: 44.09%
  SGLT1 inhibitory activity (in words): inhibition of SGLT1
  Class (assigned class of transporter inhibited): SGLT1
[1]
  μM substrate hydrolysed/hr: 0.814 μM substrate hydrolysed/hr
[1]; listed as L7G
  Resistance to hydrolysis - % Q4G: 73.72%
GLUT2
  % Glucose Transport inhibition 25 mM: 17.03%

## COc1cc(-c2[o+]c3cc(O)cc(O)c3cc2O[C@@H]2O[C@H](CO)[C@H](O)[C@H](O)[C@H]2O)cc(OC)c1O [Malvidin 3-O-Galactoside]
GLUT2
  % Glucose Transport inhibition 25 mM: 10.41%

## COc1cc(-c2[o+]c3cc(O)cc(O)c3cc2O[C@@H]2O[C@H](CO)[C@@H](O)[C@H](O)[C@H]2O)cc(OC)c1O [Malvidin-3-O-glucoside]
GLUT2
  % Glucose Transport inhibition 25 mM: 10.91%

## COc1cc(-c2[o+]c3cc(O)cc(O)c3cc2O)cc(OC)c1O [Malvidin]
SGLT1
  % Glucose Transport inhibition 5 mM: 14.21%
GLUT2
  inhibition at 25000 µM: 4.99%

## O=C1CC(c2ccc(O)cc2)Oc2cc(O[C@@H]3O[C@H](CO)[C@@H](O)[C@H](O)[C@H]3O)cc(O)c21 (stereo partly drawn) [Naringenin-7-O-glucoside]
[1]; listed as N7G
  Resistance to hydrolysis - % Q4G: 49.5% and 49.52%
GLUT2
  % Glucose Transport inhibition 25 mM: 0.06%

## OC[C@H]1O[C@@H](Oc2cc3c(O)cc(O)cc3[o+]c2-c2ccc(O)cc2)[C@H](O)[C@@H](O)[C@@H]1O [Pelargonidin-3-glucoside]
[1]; listed as P3G
  Resistance to hydrolysis - % Q4G: 58.94%

## Oc1ccc(-c2[o+]c3cc(O)cc(O)c3cc2O)cc1 [Pelargonidin]
SGLT1
  % Glucose Transport inhibition 5 mM: 4.07%
GLUT2
  inhibition at 25000 µM: 16.5%

## O=C(CCc1ccc(O)cc1)c1c(O)cc(O)cc1O[C@@H]1O[C@H](CO)[C@@H](O)[C@H](O)[C@H]1O [Phloridzin, reference compound]
[2]
  total Cumulative Glucose Transport (tCGT), active added later with high D-glucose: no inhibition
[1]
  μM substrate hydrolysed/hr: 0.507 μM substrate hydrolysed/hr
  Resistance to hydrolysis - % Q4G: at least 20%
[1]; listed as PLZ
  Resistance to hydrolysis - % Q4G: 83.64%
GLUT2
  inhibition at 25000 µM: 18.4%

## Oc1cc(O)cc(/C=C/c2ccc(O)c(O)c2)c1 [Piceatannol]
SGLT1
  % Glucose Transport inhibition 5 mM: 89.28%
  Class (assigned class of transporter inhibited): GLUT2 (GLUT2 having >20% inhibition at both 5 mM & 25 mM)
GLUT2
  inhibition at 25000 µM: 32.7%

## COc1cc(/C=C/c2ccc(O)cc2)cc(OC)c1 [Pterostilbene]
SGLT1
  % Glucose Transport inhibition 5 mM: 18.44%
GLUT2
  inhibition at 25000 µM: 8.26%

## Oc1ccc(C=Cc2cc(O)cc(O)c2)cc1 [Resveratrol]
[2]
  total Cumulative Glucose Transport (tCGT), active added later with high D-glucose: significant reduction
SGLT1
  % Glucose Transport inhibition 5 mM: 76.07%
  Class (assigned class of transporter inhibited): GLUT2 (GLUT2 having >20% inhibition at both 5 mM & 25 mM)
GLUT2
  inhibition at 25000 µM: 59%
  GLUT2 inhibition (in words): GLUT2 inhibitors

## OC[C@H]1O[C@@H](Oc2ccc(O)cc2)[C@H](O)[C@@H](O)[C@@H]1O [arbutin]
SGLT1
  SGLT1 inhibitory activity (in words): lack of SGLT1 inhibitory activity

## O=C(O)/C=C/c1ccc(O)c(O)c1 [caffeic acid]
SGLT1
  SGLT1 inhibitory activity (in words): no inhibitory activity
GLUT2
  GLUT2 inhibition (in words): no inhibitory activity

## O=C(/C=C/c1ccc(O)c(O)c1)O[C@@H]1C[C@](O)(C(=O)O)C[C@@H](O)[C@H]1O [chlorogenic acid]
SGLT1
  SGLT1 inhibitory activity (in words): no inhibitory activity
GLUT2
  GLUT2 inhibition (in words): no inhibitory activity

## O=C(/C=C/c1ccc(O)c(O)c1)O[C@H](Cc1ccc(O)c(O)c1)C(=O)O [rosmarinic acid]
SGLT1
  SGLT1 inhibitory activity (in words): no inhibitory activity
GLUT2
  GLUT2 inhibition (in words): no inhibitory activity
